Reference: US9018248B2, “Fatty acid derivatives of catechins and methods of their use” (Genesis Group Inc., priority 2010, dated 2015)

tested on: COX-2; assay: COX-2 protein expression in LPS-stimulated RAW 264.7 macrophages (western blot); assay type: cell-based, murine; conditions: LPS 100 ng/ml, RAW 264.7, western blot
Procedure: RAW 264.7 cells were cultured in Rosewell Park Memorial Institute (RPMI) 1640 media (without phenol red) supplemented with 10% endotoxin-free, heat-inactivated fetal calf serum, 100 units/ml penicillin, and 100 μg/ml streptomycin. When the cells reached a density of 2-3×10^6 cells/ml, they were activated by incubation in a medium containing E. coli lipopolysaccharide (LPS) (100 ng/ml). Various concentrations of compounds of the disclosure in dimethyl sulphoxide (DMSO) were added together with LPS. Cells were treated with 0.05% DMSO as the vehicle control. The stimulated murine macrophage cell line RAW 264.7 cells were washed with PBS and lysed in an ice-cold RIPA buffer (Tris-HCl, pH 7.2, 25 mM; 0.1% SDS; 1% Triton X-100; 1% sodium deoxycholate; 0.15 M NaCl; 1 mM EDTA) containing 1 mM phenylmethyl sulphonyl fluoride (PMSF), 10 μg/mL aprotinin, 1 mM sodium ortho-vanadate, and 5 μg/mL leupeptin. Protein concentrations were determined using the BCA method (Pierce, Rockford, Ill.). The samples (50 μg of protein) were mixed with 5-fold of sample buffer containing 0.3 M Tris-HCl (pH 6.8), 25% 2-mercaptoethanol, 12% sodium dodecyl sulphate (SDS), 25 mM EDTA, 20% glycerol, and 0.1% bromophenol blue. The mixtures were boiled at 100° C. for 5 min, prerun on a stacking gel, and then resolved by 12% SDS-polyacrylamide minigels at a constant current of 20 mA. For western blot, proteins on the gel were electro-transferred onto a […] immobile polyvinylidene fluoride (PVDF) membrane with a transfer buffer composed of 25 mM Tris-HCl (pH 8.9), 192 mM glycine, and 20% methanol, as described by Pan et al. (2000). Membrane blocking was then carried out at room temperature for 1 h in blocking solution (20 mM Tris-HCl pH 7.4, 125 mM NaCl, 0.2% Tween 20, 1% bovine serum albumin, and 0.1% sodium azide). The membrane was incubated with the primary antibody of iNOS and COX-2 at 4° C. overnight. The membranes were subsequently probed with selected IgG antibody conjugated to horseradish peroxidase (Transduction Laboratories, Lexington, Ky.) and visualized using enhanced chemiluminescence (ECL, Amersham). The densities of the bands were quantitated using a densitometer (AlphaImager 2200 System). All the membranes were stripped and reprobed for β-actin (Sigma Chemical Co., St. Louis, Mo.) as loading control. […] The inhibition of iNOS induction by compounds of the disclosure may be due to down regulation of iNOS gene expression. EGCG and compounds of the disclosure with antioxidant activities may inhibit the ROS/RNS-mediated activation of NF-κB, the transcription factor that promotes gene expression of iNOS. […] The difference in their ability to inhibit production of iNOS and COX-2 may be due to other mechanisms involved in addition to blocking the NF-κB signalling pathway. EGCG and its derivatives may also suppress the cytokine production by breaking down the mRNA and protein of iNOS and COX-2 to varied degrees. (7b) Inhibition Against LPS-Induced NO Production in RAW 264.7 Macrophage The LPS-induced NO production by the macrophages was determined as nitrite concentration in the culture medium according to the Griess reaction. The culture medium of the control and treated cells was collected and centrifuged. An aliquot (100 μL) of the supernatant was mixed with an equal volume of Griess reagent. The absorbance of the mixture at 550 nm was measured with an ELISA plate reader (Dynatech MR-7000; Dynatech Laboratories, Chantilly, Va., USA). […]

Structure (SMILES) | Inhibition of COX-2 protein expression
CCCCCCCCCCCCCCCCCC(=O)Oc1cc(C(=O)OC2Cc3c(O)cc(O)cc3OC2c2cc(OC(=O)CCCCCCCCCCCCCCCCC)c(O)c(OC(=O)CCCCCCCCCCCCCCCCC)c2)cc(OC(=O)CCCCCCCCCCCCCCCCC)c1O (stereo not shown) [Compound 1a, EGCG stearate] | decreased in the order of 1a>1b>EGCG>1c
CCC=CCC=CCC=CCC=CCC=CCCCC(=O)Oc1cc(C(=O)OC2Cc3c(O)cc(O)cc3OC2c2cc(OC(=O)CCCC=CCC=CCC=CCC=CCC=CCC)c(O)c(OC(=O)CCCC=CCC=CCC=CCC=CCC=CCC)c2)cc(OC(=O)CCCC=CCC=CCC=CCC=CCC=CCC)c1O (stereo not shown) [Compound 1b] | decreased in the order of 1a>1b>EGCG>1c
CCC=CCC=CCC=CCC=CCC=CCC=CCCC(=O)Oc1cc(C(=O)OC2Cc3c(O)cc(O)cc3OC2c2cc(OC(=O)CCC=CCC=CCC=CCC=CCC=CCC=CCC)c(O)c(OC(=O)CCC=CCC=CCC=CCC=CCC=CCC=CCC)c2)cc(OC(=O)CCC=CCC=CCC=CCC=CCC=CCC=CCC)c1O (stereo not shown) [Compound 1c] | decreased in the order of 1a>1b>EGCG>1c
O=C(O[C@@H]1Cc2c(O)cc(O)cc2O[C@@H]1c1cc(O)c(O)c(O)c1)c1cc(O)c(O)c(O)c1 [EGCG, Epigallocatechin gallate, reference compound] | decreased in the order of 1a>1b>EGCG>1c
